The values that follow come from patent US20120115900A1, “SUBSTITUTED NAPHTHYRIDINE DERIVATIVES AND THEIR MEDICAL USE” (NEUROSEARCH A/S, priority 2009, published 2012).

Data set [1] concerns the target T1, human Kv7.2+3 (Homo sapiens, UniProt O43525+O43526).
T1 construct: expressed in transfected cells; host or cells: HEK293
Briefly: FLIPR-based characterization of Kv7.2+3 modulators (thallium (I) sensitive BTC fluorescence assay). Type of data set: cell-based. The settings on record: HEK293 cells over-expressing human Kv7.2+3, mean of at least two test runs; for EC50: Tl+ influx, FLIPR, 50% of channel activity compared to retigabine control responses; for Emax: maximal response relative to the reference (retigabine) response, read-out: Efficacy. The protocol: FLIPR-Based Characterization of Kv7.2+3 Modulators
This experiment determines the ability of a test compound to modulate the activity of Kv7.2+3 channels heterologously expressed in human HEK293 cells. The ability is determined relative to retigabine. The activity is determined using a standard thallium (I) sensitive assay, e.g. using a fluorometric method in a Fluorescent Image Plate Reader (FLIPR) as described below in more detail.
Full concentration/response curves are generated and EC50 values are calculated based on max values. EC50 values (Effective Concentration) represent the concentration of the test substance, at which 50% of the channel activity is obtained when compared to retigabine control responses. Maximal response determined relative to the reference (retigabine) response is calculated.
Human HEK293 cells over-expressing human Kv7.2+3 are grown in culture medium (DMEM supplemented with 10% foetal bovine serum), in polystyrene culture flasks ([…]) in a humidified atmosphere of 5% CO2 in air, at 37° C. Cell confluence should be 80-90% on day of plating. Cells are rinsed with 4 ml of PBS (phosphate buffered saline) and incubated 2 min with 1 ml of Trypsin-EDTA. After addition of 25 ml of culture medium cells are re-suspended by trituration with a 25 ml pipette.
The cells are seeded at a density of ˜3×10^6 cells/ml (25 μl/well) in blackwalled, clear bottom, 384-well plates pre-treated with 0.01 g/l poly-D-lysin (20 μl/well for ≧30 min). Plated cells were allowed to proliferate for 24 h before loading with dye.
BTC-AM (50 mg, Invitrogen) is added 25.5 μl DMSO. The BTC-AM stock solution (2 mM) is diluted to a final concentration of 2 μM in Cl^− free assay buffer (in mM: 140 Na^+-gluconate, 2.5 K^+-gluconate, 6 Ca2^+-gluconate, 1 Mg^2+gluconate, 5 glucose, 10 HEPES, pH 7.3) containing 2 μM ouabain, 2 mM amaranth and 1 mM tartrazine.
The culture medium is aspirated from the wells, the cells are washed thrice in Cl^− free assay buffer, and 25 μl of the BTC-AM loading solution is added to each well. The cells are incubated at 37° C. for 60 min.
After the loading period, the TI^+-sensitive BTC fluorescence signal is measured over time using a FLIPR.
• Temperature: Room temp. • First addition: 12 μl test or control compound after 15 sec at a rate of 30 μl/sec and starting height of 20 μl • Second addition: 12 μl stimulus buffer (Cl^− free assay buffer supplemented with 1 mM Tl2SO4, 5 mM K2SO4 as well as the quenchers amaranth (2 mM) and tartrazine (1 mM)) is added after an additional 3 minutes at a rate of 30 μl/sec and starting height of 30 μl • Reading intervals: First sequence—3 sec×5, 2 sec×24 and 5 sec×25 Second sequence—1 sec×5, 2 sec×24 and 5 sec×36 Addition plates (compound plate and stimulus plate) are placed in positions 2 and 3, respectively. Cell plates are placed in position 1 and run using the “KCNQ (two additions)” program. FLIPR will then take the appropriate measurements in accordance with the interval settings above. Fluorescence obtained after stimulation is corrected for the mean basal fluorescence (in Cl^− free assay buffer).
Full concentration/response curves are generated and EC50 values (“Effective Concentration”; the concentration at which 50% of the channel activity is obtained when compared to retigabine control responses) are calculated based on peak values. Maximal response determined relative to the reference (retigabine) response is calculated. Data are given as mean of at least two test runs

One may read the melting point as the temperature, or range, at which the solid turns liquid. What is called EC50 is the concentration at which the effect is half-maximal. A higher EC50 goes with a need for much substance. For `Cc1cc(N2CCc3ncccc3C2)nc(N2CCCC2)c1NC(=O)Cc1cc(F)cc(F)c1` [Compound 1.1, 2-(3,5-Difluoro-phenyl)-N-[6-(7,8-dihydro-5H-[1,6]naphthyridin-6-yl)-4-methyl-2-pyrrolidin-1-yl-pyridin-3-yl]-acetamide], the melting point fell in the range of 203 to 206 °C. In data set [1], a half-maximal effect (EC50) was put at 67 nM and the Emax turned out to be 96%.
Regarding `Cc1cc(N2CCc3ncccc3C2)nc(N2CCCC2)c1NC(=O)CC(C)(C)C` [Compound 1.2, N-[6-(7,8-Dihydro-5H-[1,6]naphthyridin-6-yl)-4-methyl-2-pyrrolidin-1-yl-pyridin-3-yl]-3,3-dimethyl-butyramide], in data set [1], the concentration for a half-maximal effect (EC50) was found to be 1200 nM and the Emax is 121%.
As to `Cc1cc(N2CCc3ncccc3C2)nc(N2CCCC2)c1NC(=O)c1cccc(F)c1` [Compound 1.3, N-[6-(7,8-Dihydro-5H-[1,6]naphthyridin-6-yl)-4-methyl-2-pyrrolidin-1-yl-pyridin-3-yl]-3-fluoro-benzamide], in data set [1], the EC50 is 5000 nM and the Emax was 24%.
In the same order, the values of `Cc1ccoc1C(=O)Nc1c(C)cc(N2CCc3ncccc3C2)nc1N1CC[C@@H](F)C1` [Compound 1.4, N-[6-(7,8-dihydro-5H-1,6-naphthyridin-6-yl)-2-[(3R)-3-fluoropyrrolidin-1-yl]-4-methyl-3-pyridyl]-3-methyl-furan-2-carboxamide] are 85 nM and 101%.
In the same order, the values of `Cc1cc(N2CCc3ncccc3C2)nc(N2CC[C@@H](F)C2)c1NC(=O)Cc1cc(F)cc(F)c1` [Compound 1.5, 2-(3,5-difluorophenyl)-N-[6-(7,8-dihydro-5H-1,6-naphthyridin-6-yl)-2-[(3R)-3-fluoropyrrolidin-1-yl]-4-methyl-3-pyridyl]-acetamide] are 190 nM and 101%.
On to `Cc1ccoc1C(=O)Nc1c(C)cc(N2CCc3ncccc3C2)nc1N1CCC(F)(F)CC1` [Compound 1.6, N-[2-(4,4-difluoro-1-piperidyl)-6-(7,8-dihydro-5H-1,6-naphthyridin-6-yl)-4-methyl-3-pyridyl]-3-methyl-furan-2-carboxamide], for which, in data set [1], the response was half-maximal at 19 nM (EC50) and the Emax worked out at 81%.
In the same order, the values of `Cc1cc(N2CCc3ncccc3C2)nc(N2CCC(F)(F)CC2)c1NC(=O)Cc1cc(F)cc(F)c1` [Compound 1.7, 2-(3,5-difluorophenyl)-N-[2-(4,4-difluoro-1-piperidyl)-6-(7,8-dihydro-5H-1,6-naphthyridin-6-yl)-4-methyl-3-pyridyl]-acetamide] are 220 nM and 104%.
Turning to `Cc1cc(N2CCc3ncccc3C2)nc(N2CCC(F)(F)CC2)c1NC(=O)c1nccn1C` [Compound 1.8, N-[2-(4,4-difluoro-1-piperidyl)-6-(7,8-dihydro-5H-1,6-naphthyridin-6-yl)-4-methyl-3-pyridyl]-1-methyl-imidazole-2-carboxamide], in data set [1], the EC50 is 1300 nM and the Emax was 114%.
In the same order, the values of `Cc1cc(N2CCc3ncccc3C2)nc(N2CCC(F)(F)CC2)c1NC(=O)c1ncoc1C` [Compound 1.9, N-[2-(4,4-difluoro-1-piperidyl)-6-(7,8-dihydro-5H-1,6-naphthyridin-6-yl)-4-methyl-3-pyridyl]-5-methyl-oxazole-4-carboxamide] are 50 nM and 105%.
In the case of `Cc1cc(N2CCc3ncccc3C2)nc(N2CCC(F)(F)CC2)c1NC(=O)c1scnc1C` [Compound 1.10, N-[2-(4,4-difluoro-1-piperidyl)-6-(7,8-dihydro-5H-1,6-naphthyridin-6-yl)-4-methyl-3-pyridyl]-4-methyl-thiazole-5-carboxamide], in data set [1], the concentration giving a half-maximal response (EC50) is 6900 nM and the Emax turned out to be 115%.
As to `Cc1cc(N2CCc3ncccc3C2)nc(N2CCC(F)(F)CC2)c1NC(=O)c1conc1C` [Compound 1.11, N-[2-(4,4-difluoro-1-piperidyl)-6-(7,8-dihydro-5H-1,6-naphthyridin-6-yl)-4-methyl-3-pyridyl]-3-methyl-isoxazole-4-carboxamide], in data set [1], the EC50 came to 1200 nM and the Emax is 115%.
Consider `Cc1cc(N2CCc3ncccc3C2)nc(N2CCC(F)(F)CC2)c1NC(=O)c1ocnc1C` [Compound 1.12, N-[2-(4,4-difluoro-1-piperidyl)-6-(7,8-dihydro-5H-1,6-naphthyridin-6-yl)-4-methyl-3-pyridyl]-4-methyl-oxazole-5-carboxamide], for which, in data set [1], the EC50 stood at 65 nM and the Emax worked out at 100%.
As for `Cc1cc(N2CCc3ncccc3C2)nc(N2CCC(F)(F)CC2)c1NC(=O)CC1CC1` [Compound 1.13, 2-cyclopropyl-N-[2-(4,4-difluoro-1-piperidyl)-6-(7,8-dihydro-5H-1,6-naphthyridin-6-yl)-4-methyl-3-pyridyl]-acetamide], in data set [1], the response was half-maximal at 1100 nM (EC50) and the Emax was 109%.
In the same order, the values of `CCc1ocnc1C(=O)Nc1c(C)cc(N2CCc3ncccc3C2)nc1N1CCC(F)(F)CC1` [Compound 1.14, N-[2-(4,4-difluoro-1-piperidyl)-6-(7,8-dihydro-5H-1,6-naphthyridin-6-yl)-4-methyl-3-pyridyl]-5-ethyl-oxazole-4-carboxamide] are 20 nM and 89%.
In the case of `Cc1cccnc1C(=O)Nc1c(C)cc(N2CCc3ncccc3C2)nc1N1CCC(F)(F)CC1` [Compound 1.15, N-[2-(4,4-difluoro-1-piperidyl)-6-(7,8-dihydro-5H-1,6-naphthyridin-6-yl)-4-methyl-3-pyridyl]-3-methyl-pyridine-2-carboxamide], in data set [1], a half-maximal effect (EC50) was put at 2900 nM and the Emax amounted to 28%.
The like results for `Cc1nc(C(=O)Nc2c(C)cc(N3CCc4ncccc4C3)nc2N2CCC(F)(F)CC2)c(C)o1` [Compound 1.16, N-[2-(4,4-difluoro-1-piperidyl)-6-(7,8-dihydro-5H-1,6-naphthyridin-6-yl)-4-methyl-3-pyridyl]-2,5-dimethyl-oxazole-4-carboxamide] were, in that order, 5400 nM and 116%.
`Cc1cc(N2CCc3ncccc3C2)nc(N2CCC(F)(F)CC2)c1NC(=O)c1ncoc1-c1ccccc1` [Compound 1.17, N-[2-(4,4-difluoro-1-piperidyl)-6-(7,8-dihydro-5H-1,6-naphthyridin-6-yl)-4-methyl-3-pyridyl]-5-phenyl-oxazole-4-carboxamide]: in data set [1], the EC50 was found to be 4600 nM and the Emax is 90%.
In the same order, the values of `Cc1cc(N2CCc3ncccc3C2)nc(N2CCC(F)(F)CC2)c1NC(=O)c1ncoc1C1CC1` [Compound 1.18, 5-cyclopropyl-N-[2-(4,4-difluoro-1-piperidyl)-6-(7,8-dihydro-5H-1,6-naphthyridin-6-yl)-4-methyl-3-pyridyl]oxazole-4-carboxamide] are 73 nM and 34%.
In the same order, the values of `Cc1cc(N2CCc3ncccc3C2)nc(N2CCC(F)(F)CC2)c1NC(=O)c1cnsc1C` [Compound 1.19, N-[2-(4,4-difluoro-1-piperidyl)-6-(7,8-dihydro-5H-1,6-naphthyridin-6-yl)-4-methyl-3-pyridyl]-5-methyl-isothiazole-4-carboxamide] are 5200 nM and 71%.
As to `CCOC(=O)Nc1c(C)cc(N2CCc3ncccc3C2)nc1N1CCC(F)(F)CC1` [Compound 1.20, ethyl N-[2-(4,4-difluoro-1-piperidyl)-6-(7,8-dihydro-5H-1,6-naphthyridin-6-yl)-4-methyl-3-pyridyl]-carbamate], in data set [1], the midpoint of the response, the EC50, lay at 280 nM and the Emax is 100%.
